Results: patent publication US7795290B2 (Genentech, Inc., priority 2004, dated 2010)

Experiments:
Assay in all cases: HTS ATP-utilizing enzyme assay, off-chip mobility-shift (Caliper HTS 250)
Format in all cases: biochemical
Settings in all cases: kinase named = inhibitory activity/selectivity; test compound 10 μM; active = greater than three-sigma from mean
[1] = target: KIT (Homo sapiens, UniProt P10721)
Description: (§1) The following procedures describe the reagent and plate preparation for a HTS of an ATP-utilizing enzyme, such as a protein kinase, run in an off-chip mobility-shift assay format. The following provides an HTS protocol for running a protein kinase HTS screen on a Caliper HTS 250 microfluidics system. The following parameters are dependent on the protein kinase used and can be determined by one skilled in the art as part of a typical assay development process. For example, the peptide substrate used can be identified from the current literature, by screening a peptide library of potential protein kinase substrates, or by other applicable means accepted in the field.
(§2) Assays to determine the kinase inhibitory activity of chemical entities of the present disclosure were performed using a Caliper HTS 250 microfluidics device, Greiner U-bottom assay plates, a Multidrop for transfer of reagents, and Biomek FX (AMNCBM03) software. Initially, 2.4 μL of a 1 mM solution of a test compound in 100% DMSO was added to a well of the Greiner U-bottom plate. A single Greiner U-bottom plate having 24×16 wells could include multiple test compounds. Next, 40 μL of 1.06× Assay Buffer was added to each well of the assay plate. Using the Biomek FX, 10 μL of 0.5 M EDTA was added by the span-8 to wells, indicated as 100% Control and 2.4 μL of 100% DMSO was added by the span-8 to wells, indicated as 0% Control. Using the Multidrop, 10 μL of 2.5× Enzyme Buffer, followed by 10 μL of 2.5× Substrate Buffer was added to each well of the assay plate. The total reaction volume in each well was 25 μL, and the concentration of the test compound was 10 μM. The assay plate was incubated for 2.5 hrs at 20° C. to 22° C. After the incubation period, using the Multidrop, 45 μL of 1.55× Termination Buffer was added to each well of the assay plate to stop the reaction. The inhibition of the ATP-utilizing enzyme, such as a particular protein kinase, was determined by measuring the ratio of the peptide substrate to phosphorylated product for each well of the assay plate using the Caliper HTS 250 system.
(§3) The use of three-sigma statistical limits represents a conservative method for declaring potential hits among targets. The three-sigma activity, as well as the mean population activity, can be different for each target enzyme. This method has an expected false positive rate, from an in-control measurement process, of […].
(§4) Each chemical entity listed in Table 2 was tested for protein kinase inhibitory activity according to the biological assays and definitions of protein kinase inhibitory activity as described herein. For each exemplary compound listed in Table 2, the inhibitory activity for at least one protein kinase according to the biological assays and definitions of protein kinase inhibitory activity as described herein is indicated.

[2] = target: T1, AKT1 (Homo sapiens, UniProt P31749)
T1 construct: purchased Upstate 14-276
Outline: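 AKT1 activity was measured by off-chip mobility shift (Caliper HTS 250) as the ratio of peptide substrate to phosphorylated product. Test compound was at 10 μM, with 2.5 h incubation at 20–22° C. EDTA wells served as 100% control and DMSO wells as 0%. Hits were called at three-sigma limits.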

[3] = target: T2, ZAP70 (Homo sapiens, UniProt P43403)
T2 sequence (P43403 1-619): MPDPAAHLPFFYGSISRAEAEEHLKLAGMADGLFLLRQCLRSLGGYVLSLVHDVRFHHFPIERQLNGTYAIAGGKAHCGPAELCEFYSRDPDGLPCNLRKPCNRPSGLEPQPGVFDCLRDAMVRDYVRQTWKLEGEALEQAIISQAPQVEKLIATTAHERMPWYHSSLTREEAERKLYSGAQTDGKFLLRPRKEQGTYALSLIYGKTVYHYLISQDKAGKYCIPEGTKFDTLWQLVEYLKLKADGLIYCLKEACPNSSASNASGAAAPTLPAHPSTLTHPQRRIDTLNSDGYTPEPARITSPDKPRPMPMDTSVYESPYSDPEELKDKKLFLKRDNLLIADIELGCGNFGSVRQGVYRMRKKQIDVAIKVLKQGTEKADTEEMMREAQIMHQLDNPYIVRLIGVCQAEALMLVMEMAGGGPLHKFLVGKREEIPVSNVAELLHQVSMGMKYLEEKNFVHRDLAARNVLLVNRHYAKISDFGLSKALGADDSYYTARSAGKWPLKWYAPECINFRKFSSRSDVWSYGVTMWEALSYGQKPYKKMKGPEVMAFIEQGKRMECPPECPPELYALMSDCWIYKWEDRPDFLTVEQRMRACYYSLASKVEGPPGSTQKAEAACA
Description: as §1, §2, §3, §4

[4] = target: CHEK2 (Homo sapiens, UniProt O96017)
Description: as §1, §2, §3, §4

[5] = target: T3, AURORA-A (Homo sapiens, UniProt O14965)
T3 sequence (O14965 1-403): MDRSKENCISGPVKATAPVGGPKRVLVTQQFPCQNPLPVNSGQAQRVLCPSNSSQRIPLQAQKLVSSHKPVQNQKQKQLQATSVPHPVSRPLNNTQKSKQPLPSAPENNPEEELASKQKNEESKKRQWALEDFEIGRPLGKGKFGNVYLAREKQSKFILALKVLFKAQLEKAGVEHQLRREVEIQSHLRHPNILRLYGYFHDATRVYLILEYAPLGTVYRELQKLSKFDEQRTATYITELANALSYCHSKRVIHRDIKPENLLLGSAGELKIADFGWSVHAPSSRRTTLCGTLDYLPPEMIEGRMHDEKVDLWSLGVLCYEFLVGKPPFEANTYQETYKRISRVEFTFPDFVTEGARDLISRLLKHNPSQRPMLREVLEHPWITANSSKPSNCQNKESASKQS
Description: as §1, §2, §3, §4

[6] = target: GSK-3-α (Homo sapiens, UniProt P49840)
Description: as §1, §2, §3, §4

[7] = target: T4, DYRK2 (Homo sapiens, UniProt Q92630)
T4 sequence (Q92630 1-601): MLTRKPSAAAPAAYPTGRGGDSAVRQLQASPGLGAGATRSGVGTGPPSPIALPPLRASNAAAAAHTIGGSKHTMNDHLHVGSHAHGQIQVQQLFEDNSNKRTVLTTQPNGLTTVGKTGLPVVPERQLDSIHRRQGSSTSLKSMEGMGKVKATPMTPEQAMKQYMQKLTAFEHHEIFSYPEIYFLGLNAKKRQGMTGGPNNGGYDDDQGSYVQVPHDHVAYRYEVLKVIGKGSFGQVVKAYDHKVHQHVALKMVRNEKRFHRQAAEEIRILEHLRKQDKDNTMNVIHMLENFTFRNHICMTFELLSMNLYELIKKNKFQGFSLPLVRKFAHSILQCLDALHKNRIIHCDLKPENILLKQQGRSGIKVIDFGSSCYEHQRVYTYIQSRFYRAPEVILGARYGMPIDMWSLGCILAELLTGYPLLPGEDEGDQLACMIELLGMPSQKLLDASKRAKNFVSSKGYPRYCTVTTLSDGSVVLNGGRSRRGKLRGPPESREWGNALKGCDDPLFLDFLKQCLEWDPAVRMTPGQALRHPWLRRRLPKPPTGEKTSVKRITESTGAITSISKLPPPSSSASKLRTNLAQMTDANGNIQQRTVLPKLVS
Description: as §1, §2, §3, §4

Sequence of CHEK2 (O96017 whole entry): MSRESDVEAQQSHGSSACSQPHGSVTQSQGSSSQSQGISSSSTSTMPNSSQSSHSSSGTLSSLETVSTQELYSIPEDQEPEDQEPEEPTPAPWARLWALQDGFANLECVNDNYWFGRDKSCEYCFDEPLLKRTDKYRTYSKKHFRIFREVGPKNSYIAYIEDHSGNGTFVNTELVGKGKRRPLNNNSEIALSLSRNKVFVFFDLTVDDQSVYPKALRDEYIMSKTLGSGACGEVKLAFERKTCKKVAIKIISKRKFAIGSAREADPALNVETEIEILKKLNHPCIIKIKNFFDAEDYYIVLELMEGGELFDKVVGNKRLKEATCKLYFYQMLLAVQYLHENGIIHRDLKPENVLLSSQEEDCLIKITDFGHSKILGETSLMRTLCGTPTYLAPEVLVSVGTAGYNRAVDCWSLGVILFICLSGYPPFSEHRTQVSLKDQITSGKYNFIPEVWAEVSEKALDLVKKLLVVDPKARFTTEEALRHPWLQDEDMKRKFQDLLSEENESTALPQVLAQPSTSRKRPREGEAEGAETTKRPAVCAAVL
Sequence of GSK-3-α (P49840 whole entry): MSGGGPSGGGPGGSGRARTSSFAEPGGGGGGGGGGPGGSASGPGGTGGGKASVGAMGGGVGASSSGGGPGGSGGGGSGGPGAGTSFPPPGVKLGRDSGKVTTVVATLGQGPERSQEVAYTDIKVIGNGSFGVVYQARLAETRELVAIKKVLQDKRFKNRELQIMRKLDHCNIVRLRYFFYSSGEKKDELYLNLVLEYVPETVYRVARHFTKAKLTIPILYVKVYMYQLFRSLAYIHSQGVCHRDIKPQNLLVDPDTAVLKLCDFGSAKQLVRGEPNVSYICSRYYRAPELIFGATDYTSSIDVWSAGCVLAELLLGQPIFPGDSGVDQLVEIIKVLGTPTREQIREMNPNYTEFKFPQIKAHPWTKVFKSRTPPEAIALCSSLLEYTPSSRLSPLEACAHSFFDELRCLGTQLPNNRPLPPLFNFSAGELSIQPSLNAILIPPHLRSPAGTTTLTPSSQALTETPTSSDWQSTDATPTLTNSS
T1 sequence (P31749 whole entry): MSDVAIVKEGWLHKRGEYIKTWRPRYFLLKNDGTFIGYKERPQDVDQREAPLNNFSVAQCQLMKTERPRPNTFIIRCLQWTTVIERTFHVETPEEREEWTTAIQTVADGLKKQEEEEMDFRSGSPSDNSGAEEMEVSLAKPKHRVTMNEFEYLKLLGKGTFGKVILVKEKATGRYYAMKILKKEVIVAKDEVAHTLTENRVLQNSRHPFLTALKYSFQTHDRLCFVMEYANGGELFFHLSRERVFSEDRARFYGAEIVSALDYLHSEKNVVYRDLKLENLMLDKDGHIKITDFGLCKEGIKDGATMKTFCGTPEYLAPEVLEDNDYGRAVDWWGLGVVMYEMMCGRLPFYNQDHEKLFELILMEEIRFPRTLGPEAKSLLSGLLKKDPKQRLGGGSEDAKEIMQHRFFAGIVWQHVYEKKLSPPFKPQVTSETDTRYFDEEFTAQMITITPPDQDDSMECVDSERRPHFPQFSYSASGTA
Sequence of KIT (P10721 26-976): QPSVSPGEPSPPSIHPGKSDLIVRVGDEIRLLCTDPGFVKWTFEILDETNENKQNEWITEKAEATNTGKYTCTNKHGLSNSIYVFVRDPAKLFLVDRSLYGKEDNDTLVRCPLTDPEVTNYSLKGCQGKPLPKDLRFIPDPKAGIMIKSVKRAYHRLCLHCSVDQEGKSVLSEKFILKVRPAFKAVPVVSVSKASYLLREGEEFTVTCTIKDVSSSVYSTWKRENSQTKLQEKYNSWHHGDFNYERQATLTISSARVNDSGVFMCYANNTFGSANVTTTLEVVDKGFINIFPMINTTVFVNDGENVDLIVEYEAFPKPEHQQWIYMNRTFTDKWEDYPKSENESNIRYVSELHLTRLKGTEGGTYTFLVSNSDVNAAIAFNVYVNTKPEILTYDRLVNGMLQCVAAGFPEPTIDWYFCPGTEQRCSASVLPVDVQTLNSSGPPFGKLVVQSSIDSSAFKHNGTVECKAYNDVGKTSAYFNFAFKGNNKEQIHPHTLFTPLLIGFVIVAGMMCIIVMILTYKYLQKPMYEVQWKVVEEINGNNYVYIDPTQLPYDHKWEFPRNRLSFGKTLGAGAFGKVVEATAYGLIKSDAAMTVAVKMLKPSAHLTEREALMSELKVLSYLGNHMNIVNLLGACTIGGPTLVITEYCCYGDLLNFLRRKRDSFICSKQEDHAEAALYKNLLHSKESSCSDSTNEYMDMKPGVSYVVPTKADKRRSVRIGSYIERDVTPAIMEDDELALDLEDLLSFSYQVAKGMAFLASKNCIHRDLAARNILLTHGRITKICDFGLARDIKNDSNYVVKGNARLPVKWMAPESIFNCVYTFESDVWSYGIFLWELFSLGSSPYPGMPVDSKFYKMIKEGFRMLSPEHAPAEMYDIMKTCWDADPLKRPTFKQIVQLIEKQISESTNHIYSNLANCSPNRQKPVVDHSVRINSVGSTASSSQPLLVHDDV

Structure (SMILES) | Activity [1] | Activity [2] | Activity [4] | also measured
O=C(c1cccs1)N(CCCN1CCOCC1)c1nc(-c2ccc3c(c2)OCCCO3)cs1 [N-(4-(3,4-dihydro-2H-benzo[b][1,4]dioxepin-7-yl)thiazol-2-yl)-N-(3-morpholinopropyl)thiophene-2-carboxamide] | KIT | AKT1 |  | 
COc1ccc(-c2csc(N(CCCN3CCOCC3)C(=O)c3ccc(C)o3)n2)cc1 [N-(4-(4-methoxyphenyl)thiazol-2-yl)-5-methyl-N-(3-morpholinopropyl)furan-2-carboxamide] | KIT | AKT1 |  | 
COc1ccc(-c2csc(N(CCCN3CCOCC3)C(=O)c3ccc(SC)s3)n2)cc1 [N-(4-(4-methoxyphenyl)thiazol-2-yl)-5-(methylthio)-N-(3-morpholinopropyl)thiophene-2-carboxamide] | KIT |  |  | Activity [3]: ZAP70
COc1ccc(-c2csc(N(CCCN3CCN(C)CC3)C(=O)c3ccccc3)n2)cc1 [N-(4-(4-methoxyphenyl)thiazol-2-yl)-N-(3-(4-methylpiperazin-1-yl)propyl)benzamide] |  | AKT1 | CHEK2 | 
COc1ccc(-c2csc(N(CCCN3CCOCC3)C(=O)c3c(C)noc3C)n2)cc1 [N-(4-(4-methoxyphenyl)thiazol-2-yl)-3,5-dimethyl-N-(3-morpholinopropyl)isoxazole-4-carboxamide] | KIT |  |  | Activity [3]: ZAP70
COc1ccc(-c2csc(N(CCCN3CCOCC3)C(=O)c3ccno3)n2)cc1 [N-(4-(4-methoxyphenyl)thiazol-2-yl)-N-(3-morpholinopropyl)isoxazole-5-carboxamide] |  | AKT1 |  | Activity [5]: AURORA-A
COc1ccc(OC)c(-c2csc(N(CCCN3CCN(C)CC3)C(=O)c3ccco3)n2)c1 [N-(4-(2,5-dimethoxyphenyl)thiazol-2-yl)-N-(3-(4-methylpiperazin-1-yl)propyl)furan-2-carboxamide] |  | AKT1 | CHEK2 | 
COc1ccc(OC)c(-c2csc(N(Cc3ccccc3)C(=O)CCC(=O)O)n2)c1 [4-(benzyl(4-(2,5-dimethoxyphenyl)thiazol-2-yl)amino)-4-oxobutanoic acid] |  |  |  | Activity [5]: AURORA-A
COc1ccc(OC)c(-c2csc(N(CCCN(C)C)C(=O)c3cccs3)n2)c1 [N-(4-(2,5-dimethoxyphenyl)thiazol-2-yl)-N-(3-(dimethylamino)propyl)thiophene-2-carboxamide] |  | AKT1 | CHEK2 | 
CC(=O)N(CCCN1CCOCC1)c1nc(-c2ccccc2)cs1 [N-(3-morpholinopropyl)-N-(4-phenylthiazol-2-yl)acetamide] |  |  |  | Activity [6]: GSK-3-α
CCN(CC)CCCN(C(=O)c1ccccc1F)c1nc(-c2cc(OC)ccc2OC)cs1 [N-(3-(diethylamino)propyl)-N-(4-(2,5-dimethoxyphenyl)thiazol-2-yl)-2-fluorobenzamide] |  | AKT1 | CHEK2 | 
O=C(c1cccs1)N(CCCN1CCOCC1)c1nc(-c2ccnc(Cl)c2)cs1 [N-(4-(2-chloropyridin-4-yl)thiazol-2-yl)-N-(3-morpholinopropyl)thiophene-2-carboxamide] | KIT | AKT1 |  | 
COc1ccc(-c2csc(N(CCCN3CCOCC3)C(=O)COc3ccccc3)n2)cc1 [N-(4-(4-methoxyphenyl)thiazol-2-yl)-N-(3-morpholinopropyl)-2-phenoxyacetamide] |  |  |  | Activity [7]: DYRK2; Activity [6]: GSK-3-α
COc1ccc(OC)c(-c2csc(N(CCc3ccc(OC)c(OC)c3)C(=O)CCC(=O)O)n2)c1 [4-((3,4-dimethoxyphenethyl)(4-(2,5-dimethoxyphenyl)thiazol-2-yl)amino)-4-oxobutanoic acid] |  |  |  | Activity [6]: GSK-3-α
COc1ccc(OC)c(-c2csc(N(CCCN(C)C)C(=O)c3ccccc3F)n2)c1 [N-(4-(2,5-dimethoxyphenyl)thiazol-2-yl)-N-(3-(dimethylamino)propyl)-2-fluorobenzamide] |  | AKT1 | CHEK2 | 
O=C(c1cccs1)N(CCCN1CCOCC1)c1nc(-c2ccncc2)cs1 [N-(3-morpholinopropyl)-N-(4-(pyridin-4-yl)thiazol-2-yl)thiophene-2-carboxamide] | KIT | AKT1 |  | 
CN(C)CCCN(C(=O)c1ccccc1F)c1nc(-c2ccccc2)cs1 [N-(3-(dimethylamino)propyl)-2-fluoro-N-(4-phenylthiazol-2-yl)benzamide] |  | AKT1 | CHEK2 | 
COc1ccc(OC)c(-c2csc(N(CCCN(C)C)C(C)=O)n2)c1 [N-(4-(2,5-dimethoxyphenyl)thiazol-2-yl)-N-(3-(dimethylamino)propyl)acetamide] |  |  |  | Activity [6]: GSK-3-α
N#Cc1cccc(-c2csc(N(CCCN3CCOCC3)C(=O)c3cccs3)n2)c1 [N-(4-(3-cyanophenyl)thiazol-2-yl)-N-(3-morpholinopropyl)thiophene-2-carboxamide] | KIT | AKT1 |  | Activity [6]: GSK-3-α
CN1CCN(CCCN(C(=O)c2cccs2)c2nc(-c3ccccc3)cs2)CC1 [N-(3-(4-methylpiperazin-1-yl)propyl)-N-(4-phenylthiazol-2-yl)thiophene-2-carboxamide] |  | AKT1 | CHEK2 | 
